# In patent US20060112439A1, “Delta opioid receptor disruptions, compositions and methods related thereto” (priority 2001, published 2006):
# System: mice (F2N1 wild-type and delta-opioid receptor homozygous mutant)
# Assay: Metrazol Test (seizure susceptibility; tail vein infusion of pentylenetetrazole)
# Type: in vivo, mouse
# Conditions: n=10, about 5 mg/ml infused via tail vein at about 0.375 ml/min
# Procedure: A metrazol administration test can be used to screen animals for varying susceptibilities to seizures or similar events. For example, a 5 mg/ml solution of metrazol can be infused through the tail vein of a mouse at a rate of, e.g., approximately 0.375 ml/min. The infusion will cause all mice to experience seizures, followed by death. Those mice that enter the seizure stage the soonest are believed to be more prone to seizures.
# To screen for phenotypes involving changes in seizure susceptibility, the Metrazol Test was be used. About 5 mg/ml of Metrazol was infused through the tail vein of the mouse at a constant rate of about 0.375 ml/min. The infusion caused all mice to experience seizures. Those mice entering the seizure stage the quickest were thought to be more prone to seizures in general.
# The Metrazol test can also be used to screen for phenotypes related to epilepsy. Ten adult F2N1 wild-type control male mice and ten F2N1 homozygous mutant males were used, all derived from the same ES cell line. A fresh solution of about 5 mg/ml pentylenetetrazole in approximately 0.9% NaCl was prepared prior to testing. Mice were weighed and loosely held in a restrainer. After exposure to a heat lamp to dilate the tail vein, mice were continuously infused with the pentylenetetrazole solution using a syringe pump set at a constant flow rate. The following stages were recorded: first twitch (sometimes accompanied by a squeak), beginning of the tonic/clonic seizure, tonic extension and survival time. The dose required for each phase was determined and the latency to each phase was determined between genotypes. Alterations in any stage may indicate an overall imbalance in excitatory or inhibitory neurotransmitter levels.
# [1] = F2N1 delta-opioid receptor homozygous mutant (−/−) male mice
smiles,measurement,setting,value
"C1CCc2nnnn2CC1 [metrazol, pentylenetetrazole]",Dose (average ± std dev) to death,[1],121.96 ± 31.09 mg/kg
same,Dose (average ± std dev) to first twitch,[1],30.97 ± 5.20 mg/kg
same,Dose (average ± std dev) to tonic extension,[1],97.59 ± 32.27 mg/kg
same,Dose (average ± std dev) to tonic/clonic seizure,[1],53.48 ± 12.44 mg/kg
same,Dose (average ± std dev) to death,F2N1 wild-type (+/+) male mice,181.91 ± 83.20 mg/kg
same,Dose (average ± std dev) to first twitch,F2N1 wild-type (+/+) male mice,28.23 ± 5.58 mg/kg
same,Dose (average ± std dev) to tonic extension,F2N1 wild-type (+/+) male mice,126.54 ± 23.60 mg/kg
same,Dose (average ± std dev) to tonic/clonic seizure,F2N1 wild-type (+/+) male mice,39.62 ± 8.21 mg/kg
